In PMC12118722, “Self-assembled peptide-dye nanostructures for in vivo tumor imaging and photodynamic toxicity” (npj Imaging, 2024):

Experiments:
[1] = methylene blue reference value used for the relative measurement; no reference given; cited from earlier work
Text: The optical and photoacoustic properties of the assemblies were also studied (Fig. 4). When the nanospheres and branched NPs were scanned from 400 to 700 nm for optical absorbance, both adopted a similar peak absorbance to methylene blue at 662 nm. When the peaks were normalized, there was no 614 nm shoulder growth where dimerization typically forms. While the iRGD-BNP maintained methylene blue’s distinct blue color, the iRGD-SNP samples shifted to a slightly greener color. The quantum yield for the branched NPs and the nanospheres relative to methylene blue (52%) were 43% and 31%, respect ...

[2] = Ex vivo biodistribution by methylene blue fluorescence of harvested organs; details: ex vivo IVIS fluorescence after euthanasia
Text: The vital organs of the subjects were harvested after euthanasia and analyzed for fluorescence from the methylene blue for biodistribution studies.
After the subject was euthanized, the heart, lungs, liver, spleen, kidneys, and tumor were harvested and rinsed in PBS. The organs were then imaged for fluorescence signal via IVIS Perkin-Elmer Illumination and LivingImage software.

HEK 293T cells = test: Competitive inhibition flow cytometry with αVβ5 primary antibodies; type: cell-based, human
Protocol: The peptide formulations were further challenged via competitive inhibition flow cytometry studies to confirm their specific interactions with integrin receptors (Fig. 3b, c). In addition to labeling as before, some cells were pre-incubated with αVβ5 primary antibodies before iRGD-BNPs or iRGD-SNPs. […] There was no observable change in fluorescence from the presence of the antibodies for HEK 293-T cells.
300,000 cells were seeded overnight. For the competitive inhibition samples, cell cultures were first treated with αVβ5 mABs ([…]) for 90 min. The cells were then treated with the iRGD-BNPs, iR GD-SNPs, or methylene blue. The cells were detached, collected at 700xG, and the media was decanted while the cells were resuspended in ice cold buffer for flow cytometry using the APC channel.

CN(C)c1ccc2nc3ccc(=[N+](C)C)cc-3sc2c1 [methylene blue]
quantum yield of reference [1]: 52% | fluorescence in vital organs [2]: nonspecific and low fluorescence in all of the vital organs | change in fluorescence with αVβ5 antibody pre-incubation (HEK 293T cells): no change in fluorescence increase
